Legend:
[1] = log P by HPLC on a reversed-phase column (C 18), EEC Directive 79/831 Annex V.A8; assay type: physicochemical; conditions: HPLC on reversed-phase column (C 18), 40° C., 0.1% aqueous formic acid and acetonitrile, linear gradient 10% to 90% acetonitrile
Procedure, shortened: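 Calibration relied on straight-chain alkan-2-ones with 3 to 16 carbon atoms and known log P, with sample values read by linear interpolation of retention time between two adjacent standards. Separation at 40° C used 0.1% aqueous formic acid with acetonitrile rising linearly from 10% to 90%. UV spectra from 200 nm to 400 nm at chromatographic peak maxima gave lambda-max.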

Pyrenophora teres = test: In vivo preventive test on Pyrenophora teres (barley); conditions: barley plants, 14 days after contamination
Experimental: In Vivo Preventive Test on Pyrenophora teres (Barley) […] Barley plants (“Plaisant” variety), sown in starter cups on a 50/50 peat soil pozzolana substrate and grown at 22° C., are treated at the 1 leaf stage (10 cm height) by spraying with the active ingredient prepared as described above. Plants, used as controls, are treated with the mixture of acetone/tween/DMSO/water not containing the active material. After 24 hours, the plants are contaminated by spraying the leaves with an aqueous suspension of Pyrenophora teres spores (12 000 spores per mL). The spores are collected from a 12-day-old culture. […] Grading (% of efficacy) is carried out 14 days after the contamination, in comparison with the control plants.

Puccinia recondita = test: In vivo preventive test on Puccinia recondita (brown rust on wheat); conditions: wheat plants, 12 days after contamination
Experimental: In Vivo Preventive Test on Puccinia recondita (Brown Rust on Wheat) […] Wheat plants (“Scipion” variety), sown in starter cups on a 50/50 peat soil pozzolana substrate and grown at 22° C., are treated at the 1 leaf stage (10 cm height) by spraying with the active ingredient prepared as described above. Plants, used as controls, are treated with the mixture of acetone/tween/DMSO/water not containing the active material. After 24 hours, the plants are contaminated by spraying the leaves with an aqueous suspension of Puccinia recondita spores (100 000 spores per mL). The spores are collected from an infected plant and are suspended in water containing 2.5 mL/L of Tween 80 at 10%. […] Grading (% of efficacy) is carried out 12 days after the contamination, in comparison with the control plants.

Septoria tritici = test: In vivo preventive test on Septoria tritici (wheat); conditions: wheat plants, 24 days after contamination
Experimental: In Vivo Preventive Test on Septoria tritici (Wheat) […] Wheat plants (“Scipion” variety), sown in starter cups on a 50/50 peat soil pozzolana substrate and grown at 22° C., are treated at the 1 leaf stage (10 cm height) by spraying with the active ingredient prepared as described above. Plants, used as controls, are treated with the mixture of acetone/tween/DMSO/water not containing the active material. After 24 hours, the plants are contaminated by spraying the leaves with an aqueous suspension of cryopreserved Septoria tritici spores (500 000 spores per mL). The contaminated wheat plants are incubated for 72 hours at 18° C. and at 100% relative humidity, and then for 21 days at 90% relative humidity. Grading (% of efficacy) is carried out 24 days after the contamination, in comparison with the control plants.

Sphaerotheca fuliginea = test: In vivo preventive test on Sphaerotheca fuliginea (powdery mildew on cucurbits); conditions: gherkin plants, 12 days after contamination
Experimental: In Vivo Preventive Test on Sphaerotheca fuliginea (Powdery Mildew on Cucurbits) […] Gherkin plants (“Vert petit de Paris” variety), sown in starter cups on a 50/50 peat soil-pozzolana substrate and grown at 24° C., are treated at the Z11 cotyledon stage by spraying with the active ingredient prepared as described above. Plants, used as controls, are treated with the mixture of acetone/tween/DMSO/water not containing the active material. After 24 hours, the plants are contaminated by spraying the cotyledons with an aqueous suspension of Sphaerotheca fuliginea spores (100 000 spores per mL). The spores are collected from infected plants. […] Grading (% of efficacy) is carried out 12 days after the contamination, in comparison with the control plants.

Botrytis cinerea = test: In vivo preventive test on Botrytis cinerea (grey mould); conditions: gherkin plants, 4 to 5 days after contamination
Experimental: In Vivo Preventive Test on Botrytis cinerea (Grey Mould) […] Gherkin plants (“Vert petit de Paris” variety), sown in starter cups on a 50/50 peat soil pozzolana substrate and grown at 24° C., are treated at the Z11 cotyledon stage by spraying with the active ingredient prepared as described above. Plants, used as controls, are treated with the mixture of acetone/tween/DMSO/water not containing the active material. After 24 hours, the plants are contaminated by spraying the cotyledons with an aqueous suspension of cryopreserved Botrytis cinerea spores (50 000 spores per mL). The spores are suspended in a nutrient solution composed of 10 g/L of PDB, 50 g/L of D-Fructose, 2 g/L of NH4NO3 and 1 g/L of KH2PO4. The contaminated gherkin plants are incubated at 17° C. and at 90% relative humidity. Grading (% of efficacy) is carried out 4 to 5 days after the contamination, in comparison with the control plants.

Uromyces appendiculatus = test: In vivo preventive test on Uromyces appendiculatus (bean rust); conditions: bean plants, 11 days after contamination
Experimental: In Vivo Preventive Test on Uromyces appendiculatus (Bean Rust) […] Bean plants (“Saxa” variety), sown in starter cups on a 50/50 peat soil pozzolana substrate and grown at 24° C., are treated at the 2 leaf stage (9 cm height) by spraying with the active ingredient prepared as described above. Plants, used as controls, are treated with the mixture of acetone/tween/DMSO/water not containing the active material. After 24 hours, the plants are contaminated by spraying the leaves with an aqueous suspension of Uromyces appendiculatus spores (150 000 spores per mL). The spores are collected from infected plants and are suspended in water containing 2.5 mL/L of Tween 80 at 10%. […] Grading (% of efficacy) is carried out 11 days after the contamination, in comparison with the control plants.

Row | Compound | logP [1] | Efficacy (Pyrenophora teres; 100 ppm of active ingredient) [%] | Efficacy (Pyrenophora teres; 500 ppm of active ingredient) [%] | Efficacy (Puccinia recondita; 500 ppm of active ingredient) [%] | Efficacy (Septoria tritici; 500 ppm of active ingredient) [%] | Efficacy (Sphaerotheca fuliginea; 500 ppm of active ingredient) [%] | Efficacy (Botrytis cinerea; 500 ppm of active ingredient) [%] | Efficacy (Uromyces appendiculatus; 500 ppm of active ingredient) [%] | Efficacy (Puccinia recondita; 100 ppm of active ingredient) [%] | Efficacy (Sphaerotheca fuliginea; 100 ppm of active ingredient) [%] | Efficacy (Uromyces appendiculatus; 100 ppm of active ingredient) [%] | Efficacy (Botrytis cinerea; 100 ppm of active ingredient) [%] | Efficacy (Septoria tritici; 100 ppm of active ingredient) [%]
1 | Cc1ccc(-c2cnn(C)c2)c(CN(C(=O)c2c(C(F)F)nn(C)c2Cl)C2CC2)c1 [I.57] | 2.71 | 79 |  |  |  |  |  |  |  |  |  |  | 
2 | Cc1nn(C)c(C)c1-c1ccccc1CN(C(=O)c1c(C(F)F)nn(C)c1F)C1CC1 [I.114] | 2.52 |  | 79 | 72 | 100 | 94 |  |  |  |  |  |  | 
3 | Cn1cc(C(=O)N(Cc2cc(-c3ccc(Cl)s3)ccc2Cl)C2CC2)c(C(F)F)n1 [I.144] | 4.41 |  |  | 75 | 100 |  | 98 | 94 |  |  |  |  | 
4 | Cn1nc(C(F)F)c(C(=S)N(Cc2ccccc2-c2cccs2)C2CC2)c1F [I.75] | 4.29 |  |  | 94 | 86 | 90 | 100 | 100 |  |  |  |  | 
5 | CC1CC1N(Cc1ccccc1-c1ccsc1)C(=O)c1c(C(F)F)nn(C)c1F (centres unmarked) [I.86] | 3.83 |  | 79 | 98 | 79 | 98 |  | 97 |  |  |  |  | 
6 | Cn1nc(C(F)F)c(C(=O)N(Cc2ccc(F)cc2-c2csc3ccccc23)C2CC2)c1F [I.158] | 4.44 |  |  | 81 | 98 | 100 | 100 | 91 |  |  |  |  | 
7 | Cn1nc(C(F)F)c(C(=O)N(Cc2ccccc2-c2ccsc2)C2CC2)c1F [I.67] | 3.55 |  | 79 | 100 | 97 | 100 |  | 100 |  |  |  |  | 
8 | Cn1ccc(-c2ccc(F)cc2CN(C(=O)c2c(C(F)F)nn(C)c2F)C2CC2)c1 [I.47] | 3.37 |  | 71 |  |  | 94 |  |  |  |  |  |  | 
9 | Cn1nc(C(F)F)c(C(=O)N(Cc2cc(-c3cccs3)ccc2Cl)C2CC2)c1F [I.83] | 4.06 | 86 |  |  |  |  |  |  | 75 | 98 | 80 |  | 
10 | Cn1nc(C(F)F)c(C(=O)N(Cc2cc(-c3ccsc3)ccc2Cl)C2CC2)c1F [I.95] | 3.96 | 88 |  |  |  |  |  |  |  | 98 |  |  | 
11 | Cn1nc(C(F)F)c(C(=O)N(Cc2cc(-c3ccc(Cl)s3)ccc2Cl)C2CC2)c1Cl [I.145] | 5.06 |  |  | 88 | 94 |  |  | 100 |  |  |  | 100 | 
12 | COc1ccsc1-c1ccc(Cl)cc1CN(C(=O)c1c(C(F)F)nn(C)c1F)C1CC1 [I.121] | 3.99 |  | 86 | 94 | 80 | 100 |  |  |  |  |  |  | 
13 | Cn1nc(C(F)F)c(C(=O)N(Cc2cc(Cl)ccc2-c2ccsc2)C2CC2)c1F [I.66] | 3.99 |  |  | 94 |  | 95 | 91 | 100 |  |  |  |  | 
14 | Cc1ccc(C2(C)CO2)c(CN(C(=O)c2c(C(F)F)nn(C)c2F)C2CC2)c1 (centres unmarked) [I.5] | 3.04 |  | 93 | 98 | 97 | 100 |  |  |  |  |  |  | 
15 | COc1ccsc1-c1cc(F)ccc1CN(C(=O)c1c(C(F)F)nn(C)c1F)C1CC1 [I.122] | 3.70 |  |  | 98 | 100 | 100 | 100 | 100 |  |  |  |  | 
16 | Cn1nc(C(F)F)c(C(=O)N(Cc2ccccc2-c2ccco2)C2CC2)c1F [I.32] | 3.31 |  |  |  |  |  |  |  | 88 |  | 74 | 94 | 
17 | Cn1ccc(-c2ccccc2CN(C(=O)c2c(C(F)F)nn(C)c2F)C2CC2)c1 [I.49] | 3.25 |  |  |  | 96 | 78 | 99 | 100 |  |  |  |  | 
18 | Cc1ccc(-c2coc3ccccc23)c(CN(C(=O)c2c(C(F)F)nn(C)c2F)C2CC2)c1 [I.134] | 4.32 | 71 |  |  |  |  |  |  |  | 90 | 77 |  | 79
19 | Cn1cc(C(=O)N(Cc2cc(-c3ccco3)ccc2Cl)C2CC2)c(C(F)F)n1 [I.36] | 3.44 | 71 |  |  |  |  |  |  |  |  |  |  | 
20 | Cn1cc(C(=O)N(Cc2cc(-c3ccsc3)ccc2Cl)C2CC2)c(C(F)F)n1 [I.93] | 3.59 | 88 |  |  |  |  |  |  |  |  |  |  | 86
21 | COc1ccsc1-c1cc(Cl)ccc1CN(C(=O)c1c(C(F)F)nn(C)c1F)C1CC1 [I.123] | 4.14 |  |  | 94 | 94 | 100 | 100 | 99 |  |  |  |  | 

Source: US10125126B2, “N-cycloalkyl-N-[(heterocyclylphenyl)methylene]-(thio)carboxamide derivatives” (BAYER CROPSCIENCE AG, priority 2012, dated 2018)
